The supplement of paper PMC10307832

Key:
Assay in all cases: relative viability (nuclei count vs DMSO), 5 days (fraction); higher = more cells survive
[1] = compound: COc1cc2nc(N3CCCN(C)CC3)nc(NC3CCN(Cc4ccccc4)CC3)c2cc1OC + COc1cccc2cc(-c3nc([C@H]4CC[C@H](C(=O)O)CC4)n4ncnc(N)c34)[nH]c12 [OSI-027] (partner 0.5 µM)
Procedure, shortened: (§1)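 Relative viability divides the nuclei count in treated wells by that in vehicle wells. Lung cancer cell lines were seeded in 1536-well plates, dosed by pin tool the next day, and fixed and stained after 5 days in one step with final 0.05% Triton X-100, 1% formaldehyde and 1 ug/ml Hoechst. Dosing was a single drug or a fixed anchor-drug dose plus five library-drug doses (not always all listed) in √10 steps, and values are medians of duplicate plates imaged at 4×.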

[2] = compound: COc1cc2nc(N3CCCN(C)CC3)nc(NC3CCN(Cc4ccccc4)CC3)c2cc1OC + C[C@]1(O)C[C@@H](c2nc(-c3ccc4ccc(-c5ccccc5)nc4c3)c3c(N)nccn32)C1 [Linsitinib] (partner 1 µM)
Procedure, shortened: as §1

[3] = compound: COc1cc2nc(N3CCCN(C)CC3)nc(NC3CCN(Cc4ccccc4)CC3)c2cc1OC + CS(=O)(=O)N1CCN(Cc2cc3nc(-c4cccc5[nH]ncc45)nc(N4CCOCC4)c3s2)CC1 [Pictilisib] (partner 1 µM)
Procedure, shortened: as §1

[4] = compound: COc1cc2nc(N3CCCN(C)CC3)nc(NC3CCN(Cc4ccccc4)CC3)c2cc1OC + C[C@@H](Oc1cc(-c2cnn(C3CCNCC3)c2)cnc1N)c1c(Cl)ccc(F)c1Cl [Crizotinib] (partner 1 µM)
Procedure, shortened: as §1

[5] = compound: COc1cc2nc(N3CCCN(C)CC3)nc(NC3CCN(Cc4ccccc4)CC3)c2cc1OC + Cc1cc(Nc2cc(N3CCN(C)CC3)nc(Sc3ccc(NC(=O)C4CC4)cc3)n2)n[nH]1 [Tozasertib] (partner 0.1 µM)
Procedure, shortened: as §1

Cell Line | relative viability ([1]; first compound 0.2 µM) | relative viability ([1]; first compound 0.6325 µM) | relative viability ([1]; first compound 2 µM) | relative viability ([1]; first compound 6.325 µM) | relative viability ([2]; first compound 0.2 µM) | relative viability ([2]; first compound 0.6325 µM) | relative viability ([2]; first compound 2 µM) | relative viability ([2]; first compound 6.325 µM) | relative viability ([3]; first compound 0.2 µM) | relative viability ([3]; first compound 0.6325 µM) | relative viability ([3]; first compound 2 µM) | relative viability ([3]; first compound 6.325 µM) | relative viability ([4]; first compound 0.2 µM) | relative viability ([4]; first compound 0.6325 µM) | relative viability ([4]; first compound 2 µM) | relative viability ([4]; first compound 6.325 µM) | relative viability ([5]; first compound 0.2 µM) | relative viability ([5]; first compound 0.6325 µM) | relative viability ([5]; first compound 2 µM) | relative viability ([5]; first compound 6.325 µM)
HCC-44 | 0.604 | 0.571 | 0.576 | 0.586 | 0.688 | 0.549 | 0.786 | 0.695 | 0.616 | 0.693 | 0.563 | 0.605 | 0.839 | 0.721 | 0.813 | 0.819 | 0.973 | 0.922 | 1.25 | 1.22
HCC-78 | 0.381 | 0.33 | 0.329 | 0.377 | 0.427 | 0.416 | 0.482 | 0.348 | 0.206 | 0.212 | 0.207 | 0.188 | 0.333 | 0.377 | 0.332 | 0.352 | 0.388 | 0.439 | 0.314 | 0.409
HCC-366 | 0.92 | 0.944 | 0.398 | 0.747 | 0.68 | 0.642 | 0.694 | 0.586 | 0.15 | 0.168 | 0.098 | 0.154 | 0.566 | 0.515 | 0.644 | 0.567 | 0.117 | 0.108 | 0.105 | 0.0544
HCC-827 | 0.761 | 0.793 | 0.687 | 0.781 | 1 | 0.969 | 0.967 | 0.941 | 1.04 | 1.09 | 0.636 | 0.886 | 0.886 | 0.944 | 0.917 | 0.918 | 0.406 | 0.45 | 0.374 | 0.423
HOP-62 | 0.812 | 0.845 | 0.826 | 0.819 | 0.878 | 0.992 | 1.03 | 0.7 | 0.586 | 0.688 | 0.555 | 0.496 | 0.936 | 0.822 | 0.764 | 0.943 | 0.406 | 0.371 | 0.401 | 0.441
IA-LM |  |  |  |  | 0.724 | 0.5 | 0.661 | 0.458 | 0.342 | 0.389 | 0.419 | 0.322 |  | 0.802 | 0.926 | 0.42 |  |  |  | 
LC-2-ad | 0.849 | 0.841 | 0.83 | 0.761 | 0.889 | 0.818 | 0.891 | 0.833 | 0.481 | 0.467 | 0.534 | 0.473 | 0.398 | 0.484 | 0.475 | 0.43 | 0.493 | 0.436 | 0.551 | 0.47
LCLC-97TM1 | 0.569 | 0.621 | 0.674 | 0.537 | 0.176 |  | 0.159 | 0.195 | 0.186 |  | 0.149 | 0.139 | 0.252 |  | 0.599 | 0.313 | 0.185 | 0.423 | 0.311 | 0.256
NCI-H522 | 0.654 | 0.755 | 0.74 | 0.499 |  |  |  |  |  |  |  |  |  |  |  |  | 0.573 | 0.671 | 0.547 | 0.606
NCI-H1299 |  |  |  |  | 1.01 | 0.939 | 1.1 | 0.97 | 0.734 | 0.777 | 1.05 | 0.649 | 0.945 | 0.976 | 0.94 | 0.909 |  |  |  | 
NCI-H1395 | 0.715 | 0.731 | 0.677 | 0.419 | 1.16 | 1.13 | 0.912 | 1.12 | 0.596 | 0.589 | 0.647 | 0.486 |  |  |  |  | 0.784 | 0.705 | 0.835 | 0.81
NCI-H1563 | 0.748 | 0.713 | 0.773 | 0.729 | 1.29 | 1.19 | 1.19 | 1.16 | 0.566 | 0.622 | 0.558 | 0.55 | 0.829 | 0.853 | 0.809 | 0.794 |  |  |  | 
NCI-H1623 | 0.443 | 0.472 | 0.444 | 0.444 |  |  |  |  |  |  |  |  |  |  |  |  | 0.432 | 0.45 | 0.442 | 0.411
NCI-H1648 | 0.258 | 0.318 | 0.313 | 0.275 |  |  |  |  |  |  |  |  |  |  |  |  | 0.491 | 0.527 | 0.508 | 0.538
NCI-H1650 | 0.602 | 0.857 | 0.519 | 0.555 |  |  |  |  | 0.543 | 0.699 | 0.544 | 0.548 | 1 | 0.903 | 1.2 | 0.892 | 0.482 | 0.483 | 0.576 | 0.49
NCI-H1703 |  |  |  |  | 0.593 | 0.398 | 0.533 | 0.69 | 0.25 | 0.225 | 0.266 | 0.16 | 1 | 0.45 | 0.868 | 0.526 |  |  |  | 
NCI-H1792 | 0.836 | 0.816 | 0.682 | 0.784 | 0.61 | 0.512 | 0.496 | 0.598 | 0.299 | 0.233 | 0.247 | 0.276 | 0.994 | 1.04 | 0.975 | 1.08 |  |  |  | 
NCI-H1793 | 0.241 | 0.365 | 0.225 | 0.293 | 0.912 | 1.02 | 1.21 | 0.959 | 0.317 | 0.342 | 0.282 | 0.372 |  |  |  |  | 0.338 | 0.386 | 0.359 | 0.322
NCI-H2170 | 0.802 | 0.711 | 0.695 | 0.682 |  |  |  |  | 0.353 | 0.371 | 0.288 | 0.284 | 1.19 | 1.17 | 1.23 | 1.24 | 0.696 | 0.703 | 0.788 | 0.752
NCI-H2342 | 0.677 | 0.574 | 0.785 | 0.692 |  |  |  |  |  |  |  |  |  |  |  |  | 0.503 | 0.659 | 0.57 | 0.511
SW 900 | 0.445 | 0.539 | 0.546 | 0.409 |  |  |  |  |  |  |  |  |  |  |  |  | 0.509 | 0.539 | 0.585 | 0.548
